We go through 8 molecules from patent US6194398A, “Phosphonate nucleotide compound” (Mitsubishi Chemical Corporation, priority 1996, dated 2001).

The subject of one data set is Hepatitis B virus (HBV). Put plainly: HBV growth inhibition effect: HBV-DNA synthesis in HB611 cells, Southern blotting. It counts as cell-based. Conditions: read-out: 50% inhibitory concentration for HBV-DNA synthesis. How it is done:
Hepatitis B virus (HBV) growth inhibition effect
HBV growth inhibition effect was measured in accordance with a known method (K. Ueda et al., Virology, 169, 213-216 (1989)).
(§1) A total of 2×10^4 cells of HB611 (a HBV-producing recombinant human hepatoma cell strain) were cultured at 37° C. in Dulbecco's ME medium containing 10% fetal bovine serum, streptomycin (100 μg/ml), penicillin (100 IU/ml) and Geneticin (trade name, an antibiotic substance manufactured by Life Technologies) (0.2 mg/ml). The medium was exchanged on the 2nd and 5th days of the culturing and then replaced by the medium supplemented with a sample to be tested at a final concentration of from 0.005 to 100 μM after 8, 11 and 14 days of the culturing, and DNA was recovered from the cells after 17 days of the culturing. The amount of HBV-DNA in the cells was measured by Southern blotting to calculate concentration of the compound to give 50% inhibition of HBV-DNA synthesis. Also, the concentration of each compound required for causing death to 50% of the HB611 cells was calculated. For the sake of comparison, the same test was carried out on a known compound PMFA, a dipivaloyloxymethyl ester of PMEA (Reference Example 1) and a known compound 9-[2-[bis(2,2,2-trifluoroethyl)-phosphonylmethoxy]ethyl]-2-amino-6-p-toluylthiopurine disclosed in EP 632048 (Reference Example 2). In this connection, the compound No. corresponds to the compound No. in Table 1.

Data set [1] can be described thus: Cytotoxicity: concentration causing death to 50% of HB611 cells. In kind it is cell-based. Conditions: human, read-out: 50% Cytotoxic concentration for HB611 cells. The procedure:
as §1, with “The medium was exchanged on the 2nd and 5th days of the culturing and then replaced by the medium supplemented with a sample to be tested at a final concentration of from 0.005 to 100 μM after 8, 11 and 14 days of the culturing, and DNA was recovered from the cells after 17 days of the culturing.” left out

A further data set relates to HBV. Briefly: Inhibitory effect on HBV replication of low molecular weight fraction of liver homogenate of orally dosed mouse. Conditions: 0.2 g/kg oral, liver 1 hour after administration, 1% low molecular weight fraction in HB611 medium. In kind it is cell-based, hepatitis B virus. The procedure:
Inhibitory effect on HBV replication of low molecular weight fraction prepared from liver homogenate of a mouse that was orally administered with a compound.
A sample to be tested was orally administered to each mouse of three animals per group in a dose of 0.2 g/kg, liver perfusion was carried out from the portal vein one hour after the administration and then the liver was excised. The thus excised liver was mixed with the same weight of physiological saline and was homogenized, and then a sample of low molecular weight fraction of the homogenate was prepared using an ultrafiltration membrane having a cutoff of 5,000 molecular weight.
A total of 2×10^4 cells of HB611 were cultured at 37° C. in Dulbecco's ME medium containing 10% fetal bovine serum, streptomycin (100 μg/ml), penicillin (100 IU/ml) and Geneticin (0.2 mg/ml). The medium was exchanged on the 2nd and 5th days of the culturing and then replaced by the medium supplemented with 1% of the just described low molecular weight fraction sample after 8, 11 and 14 days of the culturing, and DNA was recovered from the cells after 17 days of the culturing. The amount of HBV-DNA in the cells was measured by Southern blotting to evaluate inhibitory effect on HBV-DNA synthesis in the cells. […]

For data set [2], the system named is human immunodeficiency virus (HIV). Conditions: reported in literature; cited from earlier work.
The test system of data set [3] is herpes simplex virus type 1 (HSV-1). Conditions: reported in literature; cited from earlier work.
The test system of data set [4] is herpes simplex virus type 2 (HSV-2). Conditions: reported in literature; cited from earlier work.
For data set [5], the system named is human hepatitis B virus (HBV). The settings on record: reported in literature; cited from earlier work.
Setting [6] is: 408 h, HB611 cells, medium with sample on days 8, 11 and 14, DNA recovered after 17 days.

Where two headings read alike, the source gives them in different places. Bounds are passed on as bounds.

For the molecule `CCSc1nc(N)nc2c1ncn2CCOCP(=O)(OCC(F)(F)F)OCC(F)(F)F` [Compound 2, 2-amino-9-[2-[bis(2,2,2-trifluoroethyl)phosphonylmethoxy]ethyl]-6-ethylthiopurine], in the data set with Hepatitis B virus (HBV) (setting [6]), the IC50 turned out to be 0.06 µM. Besides, in data set [1], the CC50 is over 1000 µM.
Regarding `CCCSc1nc(N)nc2c1ncn2CCOCP(=O)(OCC(F)(F)F)OCC(F)(F)F` [Compound 3, 2-amino-9-[2-[bis(2,2,2-trifluoroethyl)phosphonylmethoxy]ethyl]-6-n-propylthiopurine], the “% inhibition of HBV-DNA synthesis” value in the data set with HBV is reported as 49%. In addition, the IC50 in the data set on Hepatitis B virus (HBV) (setting [6]) amounted to 0.02 µM. Moreover, in data set [1], the CC50 was over 1000 µM.
Turning to `CC(C)Sc1nc(N)nc2c1ncn2CCOCP(=O)(OCC(F)(F)F)OCC(F)(F)F` [Compound 4, 2-amino-9-[2-[bis(2,2,2-trifluoroethyl)phosphonylmethoxy]ethyl]-6-i-propylthiopurine], the IC50 with Hepatitis B virus (HBV) (setting [6]) was 0.07 µM. Further, the CC50 in data set [1] was over 1000 µM.
`Nc1nc(N)c2ncn(CCOCP(=O)(O)O)c2n1` [PMDAP, 9-(2-phosphonylmethoxy)ethyl-2,6-diaminopurine]: in data set [2], the “effective against HIV” value is on record as “effective”. In data set [3], the “effective against HSV-1” value was “effective”. For the same molecule, the “effective against HSV-2” value in data set [4] is given as “effective”. The “effective against HBV” value in data set [5] is on record as “effective”.
On to `Nc1ncnc2c1ncn2CCOCP(=O)(O)O` [PMEA, 9-(2-phosphonylmethoxy)ethyladenine], for which the “effective against HIV” value in data set [2] is recorded as “effective”. For the same molecule, in data set [3], the “effective against HSV-1” value was “effective”. Also, in the data set on Hepatitis B virus (HBV) (HB611, 408 h), the IC50 came out at 0.3 µM. Further, in data set [4], the “effective against HSV-2” value was “effective”. Besides, the CC50 in data set [1] turned out to be 334 µM. Also, the “effective against HBV” value in data set [5] is recorded as “effective”.
For the molecule `CC(C)(C)C(=O)OCOP(=O)(COCCn1cnc2c(N)ncnc21)OCOC(=O)C(C)(C)C` [Ref. Ex. 1], the IC50 in the data set on Hepatitis B virus (HBV) (HB611, 408 h) came to 1.08 µM. The CC50 in data set [1] stood at 17.7 µM.
On to `Cc1ccc(Sc2nc(N)nc3c2ncn3CCOCP(=O)(OCC(F)(F)F)OCC(F)(F)F)cc1` [Ref. Ex. 2, 9-[2-[bis(2,2,2-trifluoroethyl)-phosphonylmethoxy]ethyl]-2-amino-6-p-toluylthiopurine], for which, in the data set with Hepatitis B virus (HBV) (setting [6]), the IC50 was found to be 0.06 µM.
Consider `CCCSc1nc(N)nc2c1ncn2CCOCP(=O)(O)O` [Ref. Ex. 3, 2-amino-9-(2-phosphonylmethoxyethyl)-6-n-propylthiopurine], for which, in the data set with HBV, the “% inhibition of HBV-DNA synthesis” value was 17%.
